Data set [1] deals with T1, discoidin domain receptor tyrosine kinase 2 (DDR2) (Homo sapiens, UniProt Q16832).
T1 sequence (Q16832 22-855): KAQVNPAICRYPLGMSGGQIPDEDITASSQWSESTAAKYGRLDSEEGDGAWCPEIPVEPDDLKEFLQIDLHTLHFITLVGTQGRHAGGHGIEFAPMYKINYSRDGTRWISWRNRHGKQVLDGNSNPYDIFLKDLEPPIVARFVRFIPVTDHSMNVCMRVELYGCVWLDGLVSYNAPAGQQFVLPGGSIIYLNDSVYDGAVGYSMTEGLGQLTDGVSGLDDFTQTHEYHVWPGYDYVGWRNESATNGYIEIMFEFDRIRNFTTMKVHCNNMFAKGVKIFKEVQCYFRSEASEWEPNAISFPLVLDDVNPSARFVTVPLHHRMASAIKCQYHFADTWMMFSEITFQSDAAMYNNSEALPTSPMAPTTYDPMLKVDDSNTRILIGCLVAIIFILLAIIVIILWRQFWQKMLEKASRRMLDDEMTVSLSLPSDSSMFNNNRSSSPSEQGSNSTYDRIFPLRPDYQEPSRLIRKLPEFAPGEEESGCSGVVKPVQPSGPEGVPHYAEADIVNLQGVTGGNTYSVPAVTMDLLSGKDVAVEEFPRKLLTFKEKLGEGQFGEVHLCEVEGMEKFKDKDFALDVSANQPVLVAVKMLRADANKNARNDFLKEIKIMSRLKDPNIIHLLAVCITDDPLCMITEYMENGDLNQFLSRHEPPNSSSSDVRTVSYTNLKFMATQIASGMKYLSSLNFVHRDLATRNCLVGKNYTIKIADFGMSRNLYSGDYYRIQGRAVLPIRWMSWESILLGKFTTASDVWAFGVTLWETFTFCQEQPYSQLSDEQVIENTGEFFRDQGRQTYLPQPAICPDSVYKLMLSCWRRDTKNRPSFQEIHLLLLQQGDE
Put plainly: panel of 189 kinase assays. The format is biochemical.

A further data set has as its target EPHA2 (Homo sapiens, UniProt P29317). Put plainly: panel of 189 kinase assays. The class given is biochemical.
The next data set has as its target T2, EPHB2 (Homo sapiens, UniProt P29323).
T2 sequence (P29323 19-1055): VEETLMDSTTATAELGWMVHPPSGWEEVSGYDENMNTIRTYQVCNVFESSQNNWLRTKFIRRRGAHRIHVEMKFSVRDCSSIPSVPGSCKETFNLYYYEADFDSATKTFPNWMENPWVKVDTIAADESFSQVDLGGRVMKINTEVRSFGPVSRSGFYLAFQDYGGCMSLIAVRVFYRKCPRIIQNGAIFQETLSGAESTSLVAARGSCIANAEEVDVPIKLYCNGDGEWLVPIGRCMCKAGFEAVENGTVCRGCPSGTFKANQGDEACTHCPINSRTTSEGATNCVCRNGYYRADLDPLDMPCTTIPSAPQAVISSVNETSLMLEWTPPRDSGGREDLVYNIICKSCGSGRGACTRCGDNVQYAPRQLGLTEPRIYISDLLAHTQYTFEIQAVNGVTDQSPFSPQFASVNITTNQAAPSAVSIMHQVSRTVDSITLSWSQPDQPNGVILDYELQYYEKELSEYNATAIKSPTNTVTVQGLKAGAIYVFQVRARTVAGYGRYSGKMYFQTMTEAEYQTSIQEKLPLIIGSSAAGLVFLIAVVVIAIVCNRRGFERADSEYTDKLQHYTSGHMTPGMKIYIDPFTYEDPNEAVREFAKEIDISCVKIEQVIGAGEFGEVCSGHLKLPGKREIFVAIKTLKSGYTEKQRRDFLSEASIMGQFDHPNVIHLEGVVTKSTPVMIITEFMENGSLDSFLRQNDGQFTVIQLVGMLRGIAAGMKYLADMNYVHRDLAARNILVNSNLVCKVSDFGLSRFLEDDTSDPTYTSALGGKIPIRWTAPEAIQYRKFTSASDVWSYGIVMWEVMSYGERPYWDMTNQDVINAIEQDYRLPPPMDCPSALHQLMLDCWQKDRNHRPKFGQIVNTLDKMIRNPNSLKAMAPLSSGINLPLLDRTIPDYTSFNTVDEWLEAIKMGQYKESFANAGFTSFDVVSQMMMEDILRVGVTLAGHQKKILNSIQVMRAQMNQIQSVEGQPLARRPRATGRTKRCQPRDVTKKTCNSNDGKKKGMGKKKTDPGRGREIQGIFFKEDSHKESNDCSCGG
Put plainly: panel of 189 kinase assays. The format is biochemical.

Data set [2] is described as follows: Phase I relative bioavailability and food effect study in healthy subjects. The class given is in vivo. The settings on record: 200 mg single dose. On the procedure: In another Phase I, single dose, randomized, crossover relative bioavailability and food effect study in healthy subjects, the influence of a formulation change from the Phase I to Phase II tablet on belvarafenib exposure was evaluated. A total of 18 healthy subjects were enrolled in the study and received the following randomized treatments: one 150-mg and one 50-mg Phase I tablet in a fed state, two 100-mg Phase II tablets in a fed state, or two 100-mg Phase II tablets in a fasted state, with an 18-day washout between treatments. There was a positive effect of food on belvarafenib exposure in the fed state compared to the fasted state.

In general, inhibition refers to the drop in the measured response relative to a control, in per cent.

Sequence of EPHA2 (P29317 24-976, species assumed): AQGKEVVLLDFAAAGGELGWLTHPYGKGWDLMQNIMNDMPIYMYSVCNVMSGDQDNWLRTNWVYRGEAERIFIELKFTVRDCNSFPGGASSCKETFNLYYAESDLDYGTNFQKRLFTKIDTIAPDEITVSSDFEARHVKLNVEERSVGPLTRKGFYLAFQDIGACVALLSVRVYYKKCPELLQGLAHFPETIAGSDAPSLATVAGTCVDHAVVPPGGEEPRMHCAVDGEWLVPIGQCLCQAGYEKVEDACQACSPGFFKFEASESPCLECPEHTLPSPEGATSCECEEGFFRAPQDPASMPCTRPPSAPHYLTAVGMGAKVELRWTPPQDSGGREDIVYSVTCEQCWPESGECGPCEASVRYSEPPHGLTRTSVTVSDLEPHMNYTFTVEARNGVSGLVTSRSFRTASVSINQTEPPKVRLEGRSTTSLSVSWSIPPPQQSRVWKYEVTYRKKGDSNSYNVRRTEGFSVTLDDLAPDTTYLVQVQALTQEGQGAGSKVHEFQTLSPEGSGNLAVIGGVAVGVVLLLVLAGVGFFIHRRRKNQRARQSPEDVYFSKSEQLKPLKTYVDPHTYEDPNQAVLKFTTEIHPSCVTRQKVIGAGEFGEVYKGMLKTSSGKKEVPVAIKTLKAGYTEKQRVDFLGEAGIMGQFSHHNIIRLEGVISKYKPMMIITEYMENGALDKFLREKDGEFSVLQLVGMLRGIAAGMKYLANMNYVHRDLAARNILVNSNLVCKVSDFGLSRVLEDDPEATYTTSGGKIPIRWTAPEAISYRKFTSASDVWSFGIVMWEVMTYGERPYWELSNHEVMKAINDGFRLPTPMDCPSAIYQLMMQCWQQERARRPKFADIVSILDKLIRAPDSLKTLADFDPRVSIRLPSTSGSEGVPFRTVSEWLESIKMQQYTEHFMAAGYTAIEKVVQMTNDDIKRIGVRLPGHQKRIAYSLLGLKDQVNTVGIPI

On to `Cc1ccc2c(Nc3cccc(Cl)c3F)nccc2c1NC(=O)c1csc2c(N)ncnc12` [Belvarafenib, 4-amino-N-(1-((3-chloro-2-fluorophenyl)amino)-6-methylisoquinolin-5-yl)thieno[3,2-d]pyrimidine-7-carboxamide], for which the inhibition at 1 µM (in data set [1]; against EPHA2; against EPHB2) was > 90% throughout. In data set [2], the “AUC0-inf increase, fed state compared to fasted state” value is listed as ~2.8 fold. The “Cmax increase, fed state compared to fasted state” value in data set [2] is “approximately 2.2 fold”. For the same molecule, in data set [2], the adverse events result is on record as “No serious adverse events, adverse events of special interest, or deaths were reported”.

Values taken from patent publication US20240173329A1, “BELVARAFENIB FOR USE IN TREATMENT OF BRAIN CANCERS” (Genentech, Inc., priority 2021, published 2024).
